Test results reported in patent US20250129067A1 (Progentos Therapeutics, Inc., priority 2021, published 2025).

Experiments:
[1] = system: Oligodendrocyte progenitor cells (OPCs); test: In vitro OPC differentiation assay, GPR17 expression (immunocytochemistry); conditions: 3 μM (10× concentration, final 0.3 μM); 72 hours; fold change over vehicle
[2] = target: PDGFRα (Homo sapiens (Human), UniProt P16234); test: PDGFRα kinase enzyme assay (Promega PDGFRα Kinase Enzyme System, ADP-Glo); assay type: biochemical; conditions: 11-point dose response, 10,000 nM to 0.169 nM; 150 uM ATP; BLQ = below limit of quantitation; read-out: IC50 Values on PDGFRα Kinase Inhibition, IC50
Sequence of PDGFRα (P16234 24-1089): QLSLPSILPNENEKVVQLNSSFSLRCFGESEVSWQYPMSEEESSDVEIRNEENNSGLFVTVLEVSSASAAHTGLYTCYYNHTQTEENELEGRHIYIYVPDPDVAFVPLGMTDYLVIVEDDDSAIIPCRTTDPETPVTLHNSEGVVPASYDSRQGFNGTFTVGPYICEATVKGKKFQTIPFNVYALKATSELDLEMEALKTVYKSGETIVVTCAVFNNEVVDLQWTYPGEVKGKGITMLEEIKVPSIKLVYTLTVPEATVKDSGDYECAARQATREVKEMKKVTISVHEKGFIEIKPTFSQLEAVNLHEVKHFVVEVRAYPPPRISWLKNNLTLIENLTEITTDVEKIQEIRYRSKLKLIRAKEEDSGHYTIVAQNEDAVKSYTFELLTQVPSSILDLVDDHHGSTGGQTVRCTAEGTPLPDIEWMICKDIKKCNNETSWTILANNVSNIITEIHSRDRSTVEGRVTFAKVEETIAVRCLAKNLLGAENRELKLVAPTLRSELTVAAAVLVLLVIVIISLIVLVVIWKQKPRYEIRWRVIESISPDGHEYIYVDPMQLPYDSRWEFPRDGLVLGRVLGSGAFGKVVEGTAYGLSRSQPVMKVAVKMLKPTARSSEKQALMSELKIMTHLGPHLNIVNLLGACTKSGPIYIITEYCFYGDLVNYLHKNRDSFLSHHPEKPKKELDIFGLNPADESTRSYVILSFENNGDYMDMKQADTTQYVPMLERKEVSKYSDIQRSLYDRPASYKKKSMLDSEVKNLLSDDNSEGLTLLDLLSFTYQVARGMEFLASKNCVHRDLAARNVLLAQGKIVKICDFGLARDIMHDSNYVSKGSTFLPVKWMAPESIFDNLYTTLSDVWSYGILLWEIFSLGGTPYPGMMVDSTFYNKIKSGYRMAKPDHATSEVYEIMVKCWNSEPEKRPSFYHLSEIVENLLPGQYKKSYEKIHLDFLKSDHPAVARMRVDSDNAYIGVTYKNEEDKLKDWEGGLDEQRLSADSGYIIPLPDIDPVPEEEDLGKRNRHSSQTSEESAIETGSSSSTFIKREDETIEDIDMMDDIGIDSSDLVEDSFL
Procedure, shortened: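 Purified PDGFRα protein (20 ng) reacted with test compound per the Promega kinase system protocol. ADP formed was measured by ADP-Glo luminescence against a standard curve, giving IC50.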

| GPR17 Fold Induction (Over Vehicle; 3 μM) [1] | IC50 [2] [µM] | Structure (SMILES) |
| --- | --- | --- |
| 3.05 | 6.18 | Cn1cc(-c2ccc3c(N4CCN(C(=O)OCc5ccccc5C(N)=O)CC4)cnn3c2)cn1 [Compound 280, 2-carbamoylbenzyl 4-(6-(1-methyl-1H-pyrazol-4-yl)pyrazolo[1,5-a]pyridin-3-yl)piperazine-1-carboxylate] |
| 0.97 | > 10 | COc1ccc(CN2CCN(c3cnn4cc(-c5cnn(C)c5)ccc34)CC2)cc1 [Compound 253, 3-[4-(4-methoxybenzyl)piperazin-1-yl]-6-(1-methyl-1H-pyrazol-4-yl)pyrazolo[1,5-a]pyridine] |
| 1.34 | > 10 | Cn1cc(-c2ccc3c(NCCNc4ncc(Cc5ccccc5)cn4)cnn3c2)cn1 [Compound 123, N^1-(5-benzylpyrimidin-2-yl)-N^2-(6-(1-methyl-1H-pyrazol-4-yl)pyrazolo[1,5-a]pyridin-3-yl)ethane-1,2-diamine] |
| 0.58 | 6.98 | CC(C)(C)OC(=O)N1CCN(c2cnc3nc(-c4cccnc4)ccn23)CC1 [Compound 102, tert-butyl 4-(7-(pyridin-3-yl)imidazo[1,2-a]pyrimidin-3-yl)piperazine-1-carboxylate] |
| 0.67 | 3.42 | COCCn1cc(-c2ccn3c(N4CCN(C(=O)OC(C)(C)C)CC4)cnc3n2)cn1 [Compound 101, tert-butyl 4-(7-(1-(2-methoxyethyl)-1H-pyrazol-4-yl)imidazo[1,2-a]pyrimidin-3-yl)piperazine-1-carboxylate] |
| 5.91 | 7.12 | CN(CCNc1cnn2cc(-c3cnn(C)c3)ccc12)c1ncc(Cc2ccccc2)cn1 [Compound 126, N^1-(5-benzylpyrimidin-2-yl)-N^1-methyl-N^2-(6-(1-methyl-1H-pyrazol-4-yl)pyrazolo[1,5-a]pyridin-3-yl)ethane-1,2-diamine] |
| 1.09 | > 10 | CN(CCNc1ncc(Cc2ccccc2)cn1)c1cnn2cc(-c3cnn(C)c3)ccc12 [Compound 125, N^1-(5-benzylpyrimidin-2-yl)-N^2-methyl-N^2-(6-(1-methyl-1H-pyrazol-4-yl)pyrazolo[1,5-a]pyridin-3-yl)ethane-1,2-diamine] |
| 0.46 | > 10 | COCCn1cc(-c2ccn3c(N4CCCN(C(=O)OC(C)(C)C)CC4)cnc3n2)cn1 [Compound 105, tert-butyl 4-(7-(1-(2-methoxyethyl)-1H-pyrazol-4-yl)imidazo[1,2-a]pyrimidin-3-yl)-1,4-diazepane-1-carboxylate] |
| 0.85 | > 10 | Cn1cc(-c2ccn3c(N4CCC(C(=O)OC(C)(C)C)C4)cnc3n2)cn1 (stereo not drawn) [Compound 110, tert-butyl 1-(7-(1-methyl-1H-pyrazol-4-yl)imidazo[1,2-a]pyrimidin-3-yl)pyrrolidine-3-carboxylate] |
| 9.02 | 0.268 | COCCn1cnc(-c2ccc3c(N4CCN(C(=O)OC(C)(C)C)CC4)cnn3c2)c1 [Compound 227, tert-butyl 4-(6-(1-(2-methoxyethyl)-1H-imidazol-4-yl)pyrazolo[1,5-a]pyridin-3-yl)piperazine-1-carboxylate] |
| 0.54 | > 10 | CN(CCN(C)c1cnc2nc(-c3cnn(C)c3)ccn12)C(=O)OC(C)(C)C [Compound 108, tert-butyl methyl(2-(methyl(7-(1-methyl-1H-pyrazol-4-yl)imidazo[1,2-a]pyrimidin-3-yl)amino)ethyl)carbamate] |
| 1.09 | > 10 | Cn1cc(-c2ccc3c(C4CCC(CCc5ccccc5)CC4)cnn3c2)cn1 (stereo not drawn) [Compound 141, 6-(1-methyl-1H-pyrazol-4-yl)-3-(4-phenethylcyclohexyl)pyrazolo[1,5-a]pyridine] |
| 1.07 | > 10 | Cn1cc(-c2ccc3c(N4CCN(c5ncc(C(=O)c6ccc(F)cc6)cn5)CC4)cnn3c2)cn1 [Compound 25, (4-fluorophenyl)(2-{4-[6-(1-methyl-1H-pyrazol-4-yl)pyrazolo[1,5-a]pyridin-3-yl]piperazin-1-yl}pyrimidin-5-yl)methanone] |
| 4.05 | 4.33 | Cn1cc(-c2ccc3c(N4CCN(c5ncc(Cc6nnco6)cn5)CC4)cnn3c2)cn1 [Compound 180, 2-((2-(4-(6-(1-methyl-1H-pyrazol-4-yl)pyrazolo[1,5-a]pyridin-3-yl)piperazin-1-yl)pyrimidin-5-yl)methyl)-1,3,4-oxadiazole] |
| 7.38 | 3.63 | CN(Cc1ccccc1)C(=O)C1CC=C(c2cnn3cc(-c4cnn(C)c4)ccc23)C1 (stereo not drawn) [Compound 135, N-benzyl-N-methyl-3-(6-(1-methyl-1H-pyrazol-4-yl)pyrazolo[1,5-a]pyridin-3-yl)cyclopent-3-ene-1-carboxamide] |
| 3.34 | 6.59 | Cn1cc(-c2ccc3c(C4CCN(c5ncc(Cc6ccccc6)cn5)C4)cnn3c2)cn1 (stereo not drawn) [Compound 75, 3-[1-(5-benzylpyrimidin-2-yl)pyrrolidin-3-yl]-6-(1-methyl-1H-pyrazol-4-yl)pyrazolo[1,5-a]pyridine] |
| 2.64 | 4.53 | Cn1cc(-c2ccc3c(N4CCN(c5ncc(Cc6ccccc6)cn5)C(=O)C4)cnn3c2)cn1 [Compound 144, 1-(5-benzylpyrimidin-2-yl)-4-(6-(1-methyl-1H-pyrazol-4-yl)pyrazolo[1,5-a]pyridin-3-yl)piperazin-2-one] |
| 0.58 | > 10 | CN1CCC(COC(=O)N2CCN(c3cnn4cc(-c5cnn(C)c5)ccc34)CC2)CC1 [Compound 20, (1-methylpiperidin-4-yl)methyl 4-[6-(1-methyl-1H-pyrazol-4-yl)pyrazolo[1,5-a]pyridin-3-yl]piperazine-1-carboxylate] |

More lines, now with the values behind:

| Structure (SMILES) | GPR17 Fold Induction (Over Vehicle; 3 μM) [1] | IC50 [2] [µM] |
| --- | --- | --- |
| CC(C)(C)OC(=O)N1CCN(c2cnn3cc(C4CCOC4)ccc23)CC1 (stereo not drawn) [Compound 304, tert-butyl 4-(6-(tetrahydrofuran-3-yl)pyrazolo[1,5-a]pyridin-3-yl)piperazine-1-carboxylate] | 1.77 | > 10 |
| [2H]c1c([2H])c([2H])c(C([2H])([2H])c2cnc(N3CCN(c4cnn5cc(-c6cnn(C)c6)ccc45)CC3)nc2)c([2H])c1[2H] [Compound 82] | 6.50 | 2.51 |
| CC(C)(C)OC(=O)N1CCN(c2cnn3cc(C4CCOCC4)ccc23)CC1 [Compound 224, tert-butyl-4-(6-(tetrahydro-2H-pyran-4-yl)pyrazolo[1,5-a]pyridin-3-yl)piperazine-1-carboxylate] | 0.66 | > 10 |
| Cn1cc(-c2ccc3c(N4CCN(C(=O)OCc5ccccc5C#N)CC4)cnn3c2)cn1 [Compound 281, 2-cyanobenzyl 4-(6-(1-methyl-1H-pyrazol-4-yl)pyrazolo[1,5-a]pyridin-3-yl)piperazine-1-carboxylate] | 11.42 | 0.303 |
| Cn1cc(-c2ccc3c(N4CCN(c5ncc(CCCc6ccccc6)cn5)CC4)cnn3c2)cn1 [Compound 183, 6-(1-methyl-1H-pyrazol-4-yl)-3-(4-(5-(3-phenylpropyl)pyrimidin-2-yl)piperazin-1-yl)pyrazolo[1,5-a]pyridine] | 5.74 | 0.815 |
| Cn1cc(-c2ccc3c(N4CCN(c5ncc(CC6CCCOC6)cn5)CC4)cnn3c2)cn1 (stereo not drawn) [Compound 185, 6-(1-methyl-1H-pyrazol-4-yl)-3-(4-(5-((tetrahydro-2H-pyran-3-yl)methyl)pyrimidin-2-yl)piperazin-1-yl)pyrazolo[1,5-a]pyridine] | 12.67 | 0.51 |
| C[C@@H](OC(=O)N1CCCN(c2cnc3nc(-c4cnn(C)c4)ccn23)CC1)c1ccccc1 [Compound 117, (R)-1-phenylethyl 4-(7-(1-methyl-1H-pyrazol-4-yl)imidazo[1,2-a]pyrimidin-3-yl)-1,4-diazepane-1-carboxylate] | 1.39 | > 10 |
| Cn1cc(-c2ccc3c(N4CCN(c5ncc(S(=O)(=O)c6ccccc6)cn5)CC4)cnn3c2)cn1 [Compound 186, 6-(1-methyl-1H-pyrazol-4-yl)-3-(4-(5-(phenylsulfonyl)pyrimidin-2-yl)piperazin-1-yl)pyrazolo[1,5-a]pyridine] | 1.26 | > 10 |
| Cn1cc(-c2ccc3c(N4CCN(c5ncc([C@H](O)[C@@H]6CCCOC6)cn5)CC4)cnn3c2)cn1 [Compound 192, (R)-(2-(4-(6-(1-methyl-1H-pyrazol-4-yl)pyrazolo[1,5-a]pyridin-3-yl)piperazin-1-yl)pyrimidin-5-yl)((R)-tetrahydro-2H-pyran-3-yl)methanol] | 14.76 | 0.031 |
| CC1CN(c2ncc(Cc3ccccc3)cn2)CCN1c1cnn2cc(-c3cnn(C)c3)ccc12 (stereo not drawn) [Compound 142, 3-(4-(5-benzylpyrimidin-2-yl)-2-methylpiperazin-1-yl)-6-(1-methyl-1H-pyrazol-4-yl)pyrazolo[1,5-a]pyridine] | 5.85 | 9.54 |
| Cn1cc(-c2ccc3c(N4CCN(c5ncc(Sc6ccccc6)cn5)CC4)cnn3c2)cn1 [Compound 188, 6-(1-methyl-1H-pyrazol-4-yl)-3-(4-(5-(phenylthio)pyrimidin-2-yl)piperazin-1-yl)pyrazolo[1,5-a]pyridine] | 6.03 | 5.1 |
| CC(C)NC(=O)N1CCN(c2cnn3cc(-c4cnn(C)c4)ccc23)CC1 [Compound 47, N-isopropyl 4-[6-(1-methyl-1H-pyrazol-4-yl)pyrazolo[1,5-a]pyridin-3-yl]piperazine-1-carboxamide] | 1.13 | 3.99 |
